{"source": "patent US20240238336A1", "about": "“COPPER NANOCLUSTERS, METHODS FOR OBTAINING SAME AND THE USE THEREOF IN THE TREATMENT OF MENKES DISEASE” (priority 2021, published 2024)", "origin": "cited, not measured here", "test_system": "Menkes syndrome", "conditions": "child; daily subcutaneous injections for two and a half years"}
{"smiles": "N[C@@H](Cc1c[nH]cn1)C(=O)O.[Cu]", "note": "[copper histidine]", "values": [{"measurement": "development", "result": "continued to manifest severe developmental delays"}, {"measurement": "epilepsy crises", "result": "epilepsy crises were eliminated"}, {"measurement": "pigmentation of skin and hair", "result": "improved pigmentation of the skin and hair"}]}
